Values quoted from earlier work in publication PMC8240349 (Journal of Traditional and Complementary Medicine, 2021).

Tested on: CCA
Conditions: bioassay-guided activity; cited from earlier work

## C=C1CCC[C@]2(C)CC[C@@H](C(C)(C)O)C[C@@H]12 [β-eudesmol]
  IC50, anti-CCA activity: 20 to 25 µg/mL
